Data from a melting point compilation (Tetko et al.; mined from patent text by program, amines drawn as free bases though some values may be those of a salt).

`CCOC(=O)C1(CC(C)=O)OC(=O)C(=O)C1C(C)=O` (stereo unspecified) showed a melting point of 87 to 88 °C.
`CCOC(=O)C(=O)N(c1ccccc1)c1cc(OC)c([N+](=O)[O-])cc1OC` showed a melting point of 146 to 147 °C.
`CCOC(=O)c1c(-c2ccc(O)cc2)nc2ccccn12` gave a melting point of 220 °C.
`CN1C(=O)C(CN2CCCCC2)CC1C1CC1c1ccccc1Cl` (stereo unspecified) showed a melting point of 87 to 90 °C.
Compound `CCN(CC)c1ccc2c(-c3ccc(C#Cc4ccccc4)cc3)cc(=O)oc2c1` has a melting point of 136 to 138 °C.
`O=C(COc1ccccc1C1NC(C(=O)O)CS1)NCCO[N+](=O)[O-]` (stereo unspecified) showed a melting point of 99 to 103 °C.
`c1cc2[nH]ncc2cc1OC1CCOCC1` gave a melting point of 151 to 153 °C.
With `CCCCCOC(=O)c1ccc(S(N)(=O)=O)cc1` the melting point was 96 to 98 °C.
With `NCCNc1nc(N)nc(-c2cc(Cl)ccc2Cl)n1` the melting point was 152 to 153 °C.
Work on `C=CCn1c(C)nc2c3c(ccc21)[C@@H](OCCOC)[C@H](O)[C@@H](c1ccccc1)O3` yielded a melting point of 79 °C.
Work on `CCCCOc1cc(C(=O)O)cc(NC(C)=O)c1C(=O)c1ccccc1` yielded a melting point of 177 to 178 °C.
Work on `COc1ccccc1SC(CCc1ccc(Cl)cc1)Cn1ccnc1` (stereo unspecified) yielded a melting point of 105 to 106 °C.
With `CC(C)(C)OC(=O)N[C@H]1CCCCNC1=O` the melting point was 147 to 149 °C.
`Cc1ccc(S(=O)(=O)n2ccc3cccnc32)cc1` showed a melting point of 136 to 138 °C.
`Cc1ccc(S(=O)(=O)O[C@H]2CCN(S(=O)(=O)c3ccc(C)cc3)C2)cc1` showed a melting point of 110 °C.
`O=C1CCC(C(=O)O)(c2ccc(F)cc2)CC1` showed a melting point of 117 to 122 °C.
Compound `CC1(CF)C=C(Br)c2cc([N+](=O)[O-])ccc2O1` (stereo unspecified) has a melting point of 116 to 117 °C.
In the case of `CCN(C1CC(C)(C)Oc2ccc(OCCCCC(=O)NCCO)cc21)S(C)(=O)=O` (stereo unspecified), the melting point is reported as 88 to 90 °C.
With `CS(=O)(=O)OCCN(CCOS(C)(=O)=O)c1ccc([N+](=O)[O-])c(C(=O)O)c1[N+](=O)[O-]` the melting point was 200 to 210 °C.
Work on `c1ccc(COc2ccc(-c3nnn[nH]3)cc2)cc1` yielded a melting point of 228 °C.
Compound `Cc1cc([N+](=O)[O-])ccc1NC=O` has a melting point of 162 °C.
With `Nc1ccc([N+](=O)[O-])cc1OCCCCOc1cc([N+](=O)[O-])ccc1N` the melting point was 226 to 228 °C.
For `CNC(=S)N(C)NC(=O)c1cccs1`, the melting point was 176 to 178 °C.
In the case of `N#Cc1cc(O)cc2cc(-c3ccc(O)c(F)c3)oc12`, the melting point is reported as > 300 °C.
With `CC#CCOc1ccc(OCCC(=O)O)cc1` the melting point was 88 to 92 °C.
With `COc1cccc2c3c(n(C)c12)SCCC3=O` the melting point was 106 to 108 °C.
`COc1ccc2c(c1)C(C)CCC2=O` (stereo unspecified) showed a melting point of 57.5 to 58.5 °C.
For `CC(C)(NCc1ncc[nH]1)c1ccc(Cl)cc1`, the melting point was 164 to 165 °C.
Compound `COc1ccc2c(c1)[C@](C)(NC(=O)c1cc3ccccc3[nH]1)C(=O)N2c1ccc(F)cc1` has a melting point of 287 to 288 °C.
Work on `O=C(NCc1cccc(Cl)c1)c1sc2ccc(Cl)cc2c1O` yielded a melting point of 184 to 186 °C.
In the case of `O=C(c1ccn2c1CSC2c1cccnc1)c1c[nH]c2cc(-c3cccnc3)ccc12` (stereo unspecified), the melting point is reported as 270 to 271 °C.
`CCc1nc2c(N)nc3cc(OCc4ccccc4)ccc3c2s1` showed a melting point of 208 to 209 °C.
Work on `S=C(NCc1ccc(Cl)cc1Cl)N1CCc2c([nH]c3ccccc23)C1c1ccc2c(c1)OCO2` (stereo unspecified) yielded a melting point of 124 to 127 °C.
Work on `CCOC(=O)Nc1cc(F)cc(CCCCC(=O)OC)c1` yielded a melting point of 61 to 62 °C.
`COP(=O)(OC)C(O)=Cc1cccc(Cl)c1` showed a melting point of 136 to 138 °C.
`CC1Cc2cc3c(cc2C(c2ccc([N+](=O)[O-])cc2)=NN1c1nc(=O)n(C)s1)OCO3` (stereo unspecified) gave a melting point of 177 to 180 °C.
Work on `Cc1ccn(-c2ccc(C(=O)N3Cc4cccn4Cc4ccccc43)c(O)c2)n1` yielded a melting point of 134 to 136 °C.
`CC(C)C(=O)NCCc1ccc(NC(=O)C=C2CC(C(=O)O)Nc3cc(Cl)cc(Cl)c32)cc1` (racemic) showed a melting point of 216 to 218 °C.
`CCOC(=O)NNc1cc(C)c(-c2ccccc2)nn1` gave a melting point of 143 to 145 °C.
`O=C1Cc2ccc([N+](=O)[O-])cc21` gave a melting point of 126 to 127 °C.
`Cc1nnc2n1-c1ccccc1C(c1ccccc1C(F)(F)F)OC2` (stereo unspecified) gave a melting point of 265 to 269 °C.
Work on `N#Cc1c(N)nc2ccc(N3CCOCC3)cc2c1Cl` yielded a melting point of 206 °C.
Work on `CC(C)Cn1c(CO)nc2cnc3ccccc3c21` yielded a melting point of 165 to 168 °C.
Compound `O=C1c2ccccc2C(=O)N1CC=CCn1ccnc1` has a melting point of 106 to 108 °C.
`CS(=O)(=O)Nc1ccc(Cn2c(=S)n(Cc3ccc(OC(F)(F)F)cc3)c3ccccc32)cc1` gave a melting point of 167 to 170 °C.
Work on `O=C1C(=O)c2ccc(-c3cccnc3)cc2C2=C1SCC1(CCNCC1)O2` yielded a melting point of 213 to 215 °C.
With `Cc1sc(-c2cnc3ccccc3c2)nc1O` the melting point was 279 to 280 °C.
`O=C(O)C1=Cc2ccc(Br)cc2OC1C(F)(F)F` (stereo unspecified) gave a melting point of 198 to 200 °C.
`CC1(C)CC(Cc2ccc(CC3CC(C)(C)N(Cc4ccccc4)C(C)(C)C3)cc2)CC(C)(C)N1Cc1ccccc1` gave a melting point of 207 to 208 °C.
With `COc1nc(Cl)nc(Cl)c1C#N` the melting point was 117 °C.
Compound `C=CCOc1ccc2oc(C(=O)c3ccc(OC)cc3)c(C)c2c1` has a melting point of 74 to 76 °C.
